In patent US20250136634A1, “CAP ANALOG AND USE THEREOF” (SHANGHAI HONGENE BIOTECH CORPORATION, priority 2021, published 2025):

What was measured:
T7 RNA polymerase = T7 RNA polymerase (Escherichia phage T7, UniProt P00573); experiment: Capping efficiency of mRNA from T7 in vitro transcription, RNaseH cleavage and LC-MS (Example 2); assay type: biochemical; details: Example 2, T7 RNA polymerase IVT at 37° C. for 2 hs
Description: (5) Treatment with Antarctic Phosphatase:

INFB = experiment: Immunogenicity: expression of intracellular inflammatory factor INFB by qPCR in Hela cells; assay type: cell-based; details: 2 ug mRNA/well, 24 hours after transfection, relative to ^m7GpppApG cap, mean±SD
Experimental: In this example, Hela cells (ATCC CCL-2) were transfected with luciferase mRNAs (Gaussia luciferase) comprising various initial cap structures (the initial cap nucleotide structures comprised are: ^m7GpppApG, ^m7GpppA2′Ome pG, ^m7G3′OmepppA2′O-ethylpG, ^m7G2′OmepppA2′O-ethylpG, ^m7G3′OmeppA2′O-MOEpG, ^m7G2′OmepppA2′O-MOEpG, ^m7Gppp(N6-methyladenine)2′O-MOEpG, ^m7G2′OmepppC2′O-ethylpC, ^m7G3′OmepppA2′O-MOEpU), and collected after 24 hours. The expression of intracellular inflammatory factors was detected, and the relative abundance of the factors is in proportional to the immunogenicity of the mRNA.
(§1) Hela cells were seeded at a density of 4×10^5/well in 6-well plates, and transfection was carried out when the cell density reached approximately 80%. Each well was transfected with 2 ug mRNA, and the transfection reagent was Lipofectamine MessengerMAX Transfection Reagent (Invitrogen), and the transfection steps were carried out according to the instructions. Twenty-four hours after transfection, the cells were collected and TRIzol was used to extract RNAs which were then reverse transcribed into cDNAs. The expression of intracellular inflammatory factors was detected using real-time quantitative fluorescent PCR with B-actin as the internal reference. The detection of each gene was repeated 3 times, and the result of the expression of each gene is expressed as the relative value to the result of ^m7GpppApG cap.
as §1, with “The expression of intracellular inflammatory factors was detected, and the relative abundant of the factors is in proportional to the immunogenicity of the mRNA. Hela” for “Hela”, “β-actin” for “B-actin”

[1] = system: Thermostable T7 RNA polymerase (NEB); details: Example 3, thermostable T7 RNA polymerase IVT at 50° C. for 2 hs, LC-MS
Experimental: The LC-MS analyses involved in determining capping efficiency in the following examples are as follows: • Equipment: Waters UPLC H-Class • Column: ACQUITY UPLC Oligonucleotide BEH C18, 2.1*150 mm • Column temperature: 75° C. • Mobile phase A: 200 mM hexafluoroisopropanol+8.15 mM triethylamine pH7.9 • Mobile phase B: methanol • Flow rate: 0.3 mL/min • Gradient:
Initial cap oligonucleotides are ^m7GpppApG, ^m7G pppA2′Ome PG (control), ^m7GBeta-D-LNApppA2′O-MOEpG, and ^m7GAlpha-L-LNApppA2′O-ethyl pG, respectively. • reacting at 50° C. for 2 hs, • adding DNase I (1U), and reacting at 37° C. for 30 mins. (5) Treatment with Antarctic Phosphatase:
For each tested initial cap oligonucleotide, the ratio of capped mRNA was assessed by analyzing liquid chromatography-mass spectrometry (LC-MS) results. In the experiment, a DNA probe complementary to the mRNA was used. Upon the hybridization of the DNA to the RNA, RNaseH specifically hydrolyzed the phosphodiester bond in the RNA to produce small fragments of RNAs with homogeneous 3′ end. The molecular weight and percentage of the small RNA fragments were determined by LC-MS, and were used to determine capping of the RNAs in the transcription reaction. Since the presence and absence of cap at 5′ end can be distinguished by the molecule weight, the capping efficiency can be determined via the molecule weight and percentage of trunked 5′ end-containing RNAs. In addition, from the calculation of the molecule weight, it can be determined that the caps added are the capping nucleotides.

[2] = Example 3 (IVT at 50° C.), β-actin reference

Sequence of T7 RNA polymerase (P00573 whole entry): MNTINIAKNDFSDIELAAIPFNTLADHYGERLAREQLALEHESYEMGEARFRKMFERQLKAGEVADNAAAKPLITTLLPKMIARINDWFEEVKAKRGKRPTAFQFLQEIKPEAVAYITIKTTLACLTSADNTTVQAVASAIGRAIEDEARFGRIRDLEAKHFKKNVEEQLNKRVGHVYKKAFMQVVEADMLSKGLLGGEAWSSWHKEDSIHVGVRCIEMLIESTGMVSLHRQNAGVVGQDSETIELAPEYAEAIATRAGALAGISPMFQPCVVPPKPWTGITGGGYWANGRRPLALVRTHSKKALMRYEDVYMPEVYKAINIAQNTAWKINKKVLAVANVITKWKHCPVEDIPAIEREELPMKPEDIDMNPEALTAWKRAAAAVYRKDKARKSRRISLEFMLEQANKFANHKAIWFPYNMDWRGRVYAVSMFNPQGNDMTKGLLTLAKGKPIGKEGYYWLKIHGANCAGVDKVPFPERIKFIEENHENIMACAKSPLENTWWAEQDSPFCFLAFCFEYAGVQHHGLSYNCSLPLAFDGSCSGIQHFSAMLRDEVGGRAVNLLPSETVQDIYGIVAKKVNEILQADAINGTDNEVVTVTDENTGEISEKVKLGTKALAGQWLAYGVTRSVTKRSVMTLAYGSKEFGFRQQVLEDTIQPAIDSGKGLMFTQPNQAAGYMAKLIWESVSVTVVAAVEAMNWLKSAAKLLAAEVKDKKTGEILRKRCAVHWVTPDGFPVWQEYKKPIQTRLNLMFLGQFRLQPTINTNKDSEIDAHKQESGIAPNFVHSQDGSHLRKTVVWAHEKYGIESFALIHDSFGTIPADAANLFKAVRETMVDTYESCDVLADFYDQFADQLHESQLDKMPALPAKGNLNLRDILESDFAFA

Substance: ^m7G2′OmepppA2′O-MOEpG
- Capping efficiency (T7 RNA polymerase): 88%
- Expression of INFB (INFB; Example 2, B-actin reference): 0.24 ± 0.03

Substance: ^m7G2′OmepppA2′O-ethylpG
- Capping efficiency (T7 RNA polymerase): 92%
- Expression of INFB (INFB; Example 2, B-actin reference): 0.42 ± 0.02

Substance: ^m7G2′OmepppC2′O-ethylpC
- Capping efficiency (T7 RNA polymerase): 92%
- Expression of INFB (INFB; Example 2, B-actin reference): 0.78 ± 0.01

Substance: ^m7G3′OmepppA2′O-MOEpG
- Capping efficiency (T7 RNA polymerase): 89%
- Expression of INFB (INFB; Example 2, B-actin reference): 0.41 ± 0.01

Substance: ^m7G3′OmepppA2′O-MOEpU
- Capping efficiency (T7 RNA polymerase): 93%
- Expression of INFB (INFB; Example 2, B-actin reference): 1.18 ± 0.08

Substance: ^m7G3′OmepppA2′O-ethylpG
- Capping efficiency (T7 RNA polymerase): 94%
- Expression of INFB (INFB; Example 2, B-actin reference): 0.47 ± 0.01

Substance: ^m7GAlpha-L-LNApppA2′O-ethyl pG
- Capping efficiency [1]: 63%
- Expression of INFB (INFB; [2]): 0.11 ± 0.03

Substance: ^m7GBeta-D-LNApppA2′O-MOEpG
- Capping efficiency [1]: 70%
- Expression of INFB (INFB; [2]): 0.09 ± 0.02

Substance: ^m7Gppp(N6-methyladenine)2′O-MOEpG
- Capping efficiency (T7 RNA polymerase): 84%
- Expression of INFB (INFB; Example 2, B-actin reference): 0.46 ± 0.02

Substance: ^m7GpppA2′Ome pG [reference compound]
- Capping efficiency (T7 RNA polymerase): 97%
- Capping efficiency [1]: 95%
- Expression of INFB (INFB; Example 2, B-actin reference): 0.61 ± 0.01
- Expression of INFB (INFB; [2]): 0.63 ± 0.04

Substance: ^m7GpppApG [reference compound]
- Capping efficiency (T7 RNA polymerase): 98%
- Capping efficiency [1]: 93%
- Expression of INFB (INFB; Example 2, B-actin reference): 1 ± 0.08
- Expression of INFB (INFB; [2]): 1 ± 0.13
